Measured values as given in publication PMC9054772 (RSC Advances, 2020).

Target: T1, HsPKS1 (Huperzia serrata, UniProt A3E7Z7)
T1 sequence (A3E7Z7 1-399): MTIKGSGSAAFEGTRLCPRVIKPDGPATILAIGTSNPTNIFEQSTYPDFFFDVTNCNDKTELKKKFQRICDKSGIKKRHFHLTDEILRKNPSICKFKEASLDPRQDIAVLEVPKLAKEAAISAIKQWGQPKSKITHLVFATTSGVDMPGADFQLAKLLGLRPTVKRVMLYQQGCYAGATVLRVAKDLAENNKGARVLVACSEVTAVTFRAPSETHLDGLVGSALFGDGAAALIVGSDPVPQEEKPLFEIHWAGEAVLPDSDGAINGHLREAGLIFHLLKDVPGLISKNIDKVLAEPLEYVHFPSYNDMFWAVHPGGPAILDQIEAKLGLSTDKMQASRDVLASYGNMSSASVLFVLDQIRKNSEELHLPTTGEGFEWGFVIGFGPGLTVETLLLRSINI
Experiment: product formation by HPLC / LC-MS
Type: biochemical
Settings: with malonyl-CoA

## CC(C)(COP(=O)(O)OP(=O)(O)OC[C@H]1O[C@@H](n2cnc3c(N)ncnc32)[C@H](O)[C@@H]1OP(=O)(O)O)[C@@H](O)C(=O)NCCC(=O)NCCSC(=O)Cc1ccccn1 [2-pyridylacetyl-CoA]
  product formation by HPLC / LC-MS (library screen): Only two type III PKSs (HsPKS1 and HsPKS3) from H. serrata
